Patent publication US8530487B1 (priority 2009, dated 2013)

Molecular target: human TRPA1 (Homo sapiens, UniProt O75762)
Assay: cell-based
Settings: read-out: Activity (IC50)

human TRPA1, sequence (O75762 whole entry): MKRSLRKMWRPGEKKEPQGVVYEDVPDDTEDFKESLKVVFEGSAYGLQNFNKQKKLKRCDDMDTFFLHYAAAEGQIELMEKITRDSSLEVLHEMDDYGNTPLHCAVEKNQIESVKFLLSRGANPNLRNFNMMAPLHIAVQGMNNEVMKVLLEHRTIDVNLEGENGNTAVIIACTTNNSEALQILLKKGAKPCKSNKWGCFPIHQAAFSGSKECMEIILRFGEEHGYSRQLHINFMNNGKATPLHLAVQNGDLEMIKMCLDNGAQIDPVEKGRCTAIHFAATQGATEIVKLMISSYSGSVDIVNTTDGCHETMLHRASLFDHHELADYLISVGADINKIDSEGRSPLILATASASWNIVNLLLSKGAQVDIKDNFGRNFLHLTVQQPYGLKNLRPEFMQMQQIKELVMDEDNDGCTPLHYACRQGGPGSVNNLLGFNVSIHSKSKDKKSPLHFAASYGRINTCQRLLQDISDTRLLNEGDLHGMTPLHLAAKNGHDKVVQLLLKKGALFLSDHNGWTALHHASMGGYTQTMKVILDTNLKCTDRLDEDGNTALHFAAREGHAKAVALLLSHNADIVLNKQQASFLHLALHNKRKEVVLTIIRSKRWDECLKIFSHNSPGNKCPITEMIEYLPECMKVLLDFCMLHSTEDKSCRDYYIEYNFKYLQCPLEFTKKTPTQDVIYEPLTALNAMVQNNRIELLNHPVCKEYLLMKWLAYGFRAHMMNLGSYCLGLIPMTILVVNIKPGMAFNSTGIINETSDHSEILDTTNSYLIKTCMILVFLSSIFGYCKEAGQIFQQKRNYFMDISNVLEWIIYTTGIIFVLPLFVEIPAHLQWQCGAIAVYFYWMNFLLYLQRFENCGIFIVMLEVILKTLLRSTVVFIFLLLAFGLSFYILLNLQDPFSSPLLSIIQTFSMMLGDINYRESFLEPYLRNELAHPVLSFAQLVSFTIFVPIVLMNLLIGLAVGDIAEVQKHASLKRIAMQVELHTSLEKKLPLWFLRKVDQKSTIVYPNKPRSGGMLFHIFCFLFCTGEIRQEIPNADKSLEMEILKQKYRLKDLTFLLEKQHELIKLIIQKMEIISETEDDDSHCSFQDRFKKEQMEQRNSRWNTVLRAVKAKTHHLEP

SMILES | IC50 [nM]
N#CN=C1NC2=C(C(=O)c3ccccc32)C(c2cccc(OCC3CC3)c2Cl)N1 (stereo not shown) [Compound 957] | > 1000
CCCOc1cccc(C2NC(=NC#N)NC3=C2C(=O)c2ccccc23)c1 (stereo not shown) [Compound 960] | > 1000
C=CCOc1cccc(C2NC(=NC#N)N(Cc3ccccc3)C3=C2C(=O)c2ccccc23)c1 (stereo not shown) [Compound 961] | > 1000

Continued, values first:

IC50 [nM] | SMILES
> 1000 | N#CN=C1NC2=C(C(=O)c3ccccc32)C(c2cccc(C#N)c2)N1 (stereo not shown) [Compound 955]
> 1000 | N#CN=C1NC2=C(C(=O)c3ccccc32)C(c2ccccc2)N1 (stereo not shown) [Compound 956]
> 1000 | N#CN=C1NC2=C(C(=O)c3ccccc32)C(c2cccc(OCC3CCC3)c2)N1 (stereo not shown) [Compound 958]
> 1000 | CC(C)COc1cccc(C2NC(=NC#N)NC3=C2C(=O)c2ccccc23)c1 (stereo not shown) [Compound 959]
